Key:
[1] = tested on: operant alcohol self-administration in Wistar rats; experiment: Operant alcohol self-administration (FR-1), acute treatment; type: in vivo; design: alcohol reinforced lever press responses: dose or concentration left out as unconfirmed; details: 1-h pretreatment
Description: Twelve operant conditioning chambers designed for rats (30.5 cm×24.1 cm×21.0 cm; Med Associates, Georgia, VT) were located within sound-attenuating cubicles in a devoted room to limit extraneous potential impact by extraneous environmental variables. Each cubicle was equipped with an exhaust fan that provided ventilation and masked external sounds. The chambers were electronically interfaced to a Microsoft Windows based computer that was programmed using investigator developed software to control sessions and record number of lever press responses at 100-ms intervals.
The right wall of each chamber contained a liquid receptacle and a response lever (Med Associates) that was termed the active lever. Lever press responses on the active lever activated a syringe pump (PHM-100, Med Associates) that delivered 0.1 ml of alcohol solution (ethanol 8% v/v+sucrose 2% w/v) into the receptacle over a 1.66-s period. Head entries into the liquid receptacle were recorded when an infrared photo beam was broken. A stimulus light located above the response lever was illuminated during pump activation. Lever presses during reinforcer delivery were recorded but produced no programmed consequence. […] Behavior on this lever serves as a control for motor disruptions and other nonspecific effects of test compounds. […]
Testing the efficacy of Compound 1 to reduce the reinforcing, or rewarding, effects of alcohol. Following establishment of stable baseline self-administration behavior, effects of pre-session treatment with the novel mGluR5 negative allosteric modulator Compound 1 (0, 0.3, 1, 3, and 10 mg/kg, IP) were evaluated on operant alcohol self-administration behavior (n=12 rats). […] Parameters of operant performance were measured, including total lever press responses, number of headpokes into the liquid receptacle, and rate of operant responding, which is a direct measure of positive reinforcement function. […]

[2] = tested on: cocaine reinstatement in rats; experiment: Yohimbine-induced reinstatement of cocaine self-administration (Stage II); type: in vivo, Sprague-Dawley rats; details: for cocaine reinstatement, Mean Diff., Last Day of Cocaine Retraining vs treatment - Yohimbine / cocaine reinstatement, Mean Diff., Last Day of Extinction vs. treatment - Yohimbine / cocaine reinstatement, Mean Diff., Saline - Yohimbine 2 mg/kg vs. treatment - Yohimbine: 3 mg/kg, thirty min before yohimbine 2 mg/kg
Experimental: After completion of Stage I, the rats were re-trained with cocaine for one week to ensure stable baseline. And then the rats underwent a 6-day extinction training procedure in which only saline infusion occurred when active lever was pressed. Meanwhile, the rats were divided into 3 roughly even groups for pharmacological stressor-induced reinstatement—All rats received one injection of alpha-2 adrenergic antagonist yohimbine (2 mg/kg) and then placed into the training box immediately). Thirty min before yohimbine treatment, one group of rats received saline, another group received MTEP 3 mg/kg injection, and the 3rd group received Compound 1 at 3 mg/kg.
Yohimbine-induced reinstatement was re-tested two more times in the same rats 3 days and 6 days after the first test, under continuous extinction procedure (There were 2 more days of extinction training between the 1st and 2nd reinstatement test, and between the 2nd and 3rd reinstatement test). Using the 3×3 within subject design, each given animal goes through all three treatments (saline, MTEP and Compound 1) across the three rounds of test.
A one-way mixed-effects model (REML) of ANOVA followed by Dunnett's post hoc tests were used to analyze efficacy of Compound 1 and MTEP on cocaine self-administration in stages I (The repeated measure ANOVA was not totally applicable due to a few outlier data points, which are removed), and one-way mixed-effects model (REML) of ANOVA followed by Tukey's post hoc tests were used in Stage II. An effect was considered significant if P<0.05. Data were represented as the mean and standard error to the mean (s.e.m).
Statistical outliers which exceeded mean +/− (2× standard deviation) of the group were removed from the analysis. Also, for reinstatement, the extinction time was shortened (from 9 days plus extension as option to 6 days). In the present study, 3 rounds of reinstatement tests were performed, and we wished to maintain the reinstatement power, thus we cut extinction duration. Accordingly, we loosened the extinction criterion from 6 or less infusions to 9 or less infusions during the last extinction session. With this criterion, 17 out of 21 rats were eligible in drug test in Stage II.

mGluR5 = details: cited from earlier work

Row | Compound | EtOH reinforced responses vs vehicle, multiple comparisons ([1]; 10 mg/kg IP) | alcohol reinforced lever press responses ([1]; IP (so in the source), 15-min test sessions) | cocaine reinstatement, Mean Diff., Last Day of Cocaine Retraining vs treatment - Yohimbine [2] | cocaine reinstatement, Mean Diff., Last Day of Extinction vs. treatment - Yohimbine [2] | cocaine reinstatement, Mean Diff., Saline - Yohimbine 2 mg/kg vs. treatment - Yohimbine [2] | cocaine reinstatement, Mean Diff., MTEP 3 mg/kg - Yohimbine vs. Compound 1 (3 mg/kg) - Yohimbine ([2]; both 3 mg/kg before yohimbine 2 mg/kg) | affinity for mGluR5 (mGluR5; following systemic administration in rats, mice, and primates) | brain penetration (mGluR5; systemic administration)
1 | N#Cc1cc(Cl)cc(-c2cc(-c3ccc(F)cn3)ncn2)c1 [Compound 1, 3-chloro-5-[6-(5-fluoropyridin-2-yl)pyrimidin-4-yl]benzonitrile] | reduced EtOH reinforced responses | reduced alcohol reinforced lever press responses in a dose-dependent manner | 26.57 | 5.749 | 20.28 | −0.1333 | high affinity | brain penetrant
2 | Cc1nc(C#Cc2cccnc2)cs1 [MTEP, 3-((2-Methyl-4-thiazolyl)ethynyl)pyridine] | – | – | 26.71 | 5.882 | 20.41 | – | – | –

— patent US20250249001A1, “METHODS OF TREATING SUBSTANCE USE DISORDER WITH 4-(3-CYANOPHENYL)-6-PYRIDINYLPYRIMIDINE MGLU5 NEGATIVE ALLOSTERIC MODULATORS” (Tempero Bio, Inc., priority 2022, published 2025)
